Among the data in patent US9428460B2, “N-[4-(quinolin-4-yloxy)cyclohexyl(methyl)](hetero)arylcarboxamides as androgen receptor antagonists, production and use thereof as medicinal products” (BAYER PHARMA AKTIENGESELLSCHAFT, priority 2012, dated 2016) are IC50 values, retold here.

Type in all cases: cell-based
Experiment [1] has as its target androgen receptor mutant W741C (Homo sapiens (Human), UniProt P10275, W742C). Nature of the experiment: Transactivation assay for the androgen receptor mutant W741C (transfected PC-3 cells). Particulars: in the presence of 1×10^−10 M R1881, 24 hours. How it is done:
PC-3 cells (Kaighn et al., Invest. Urol. 17: 16-23, 1979) were plated out at a density of 10000 cells per well of a 96-well cell culture plate in RMPI 1640 medium (F1235, Biochrom AG, Berlin, Germany), which contained activated charcoal-treated calf serum (FCS Serum Gold, PAA Laboratories) at a concentration of 5% (v/v). On the next day the cells were transiently transfected with the pSG5-vector (#216201 Stratagene), which contained the sequence of the androgen receptor mutant W741C (Haapala et al., Lab Invest. 81(12): 1647-51, 2001), and with a reporter plasmid based on pGL4.14 (#E6691, Promega) with the luciferase-gene (from Photinus pyralis) under the control of the MMTV promoter (Cato et al., EMBO J. 6: 363-8, 1987). The cells were treated with the test substances in concentrations from 1×10^−8 to 1×10^−10 M in the presence of 1×10^−10 M R1881 and were incubated overnight at 37° C. and 5% CO2. After 24 hours, 100 μl of Steady Glo Lysis and Detection reagent (E2550, Promega) was added per well and the luminescence was read in a Victor3 Luminometer (PerkinElmer) for 1 second per well. The luminescence values obtained were normalized, wherein 100% corresponded to the effect of the unstimulated control (without R1881), and 0% corresponded to the effect of the stimulated control (R1881 plus DMSO instead of test substance). The IC50 value was determined by regression analysis based on a four-parameter equation (minimum, maximum, IC50, Hill coefficient; Y=Max+(Min−Max)/(1+(X/IC50)^Hill)).

Experiment [2] concerns the target androgen receptor mutant E709Y (Homo sapiens (Human), UniProt P10275, E710Y). Nature of the experiment: Transactivation assay for the androgen receptor mutant E709Y (transfected PC-3 cells). Particulars: in the presence of 1×10^−10 M R1881, 24 hours. Here is the method:
PC-3 cells (Kaighn et al., Invest. Urol. 17: 16-23, 1979) were plated out at a density of 10000 cells per well of a 96-well cell culture plate in RMPI 1640 medium (F1235, Biochrom AG Berlin, Germany) that contained activated charcoal-treated calf serum (FCS Serum Gold, PAA Laboratories) at a concentration of 5% (v/v). On the next day the cells were transiently transfected with the pSG5-vector (#216201 Stratagene), which contained the sequence of the androgen receptor mutant E709Y (Georget et al., Mol. Endocrinol. 20(4): 724-734, 2006), and with the MMTV-luciferase plasmid (see above, transactivation assay for the androgen receptor mutant W741C). The cells were treated with the test substances in concentrations from 1×10^−8 to 1×10^−10 M in the presence of 1×10^−10 M R1881 and were incubated overnight at 37° C. and 5% CO2. After 24 hours, 100 μl of Steady Glo Lysis and Detection reagent (E2550, Promega) was added per well and the luminescence was read in a Victor3 Luminometer (PerkinElmer) for 1 second per well. The luminescence values obtained were normalized, wherein 100% corresponded to the effect of the unstimulated control (without R1881), and 0% corresponded to the effect of the stimulated control (R1881 plus DMSO instead of test substance). The IC50 value was determined by regression analysis based on a four-parameter equation (minimum, maximum, IC50, Hill coefficient; Y=Max+(Min−Max)/(1+(X/IC50)^Hill)).

A further experiment has as its system LNCaP cells. Nature of the experiment: Proliferation assay with LNCaP cells. Conditions: Homo sapiens, 168 h, in the presence of 1×10^−10 M R1881, seven days, AlamarBlue, read-out: IC50 LNCaP cell proliferation. Here is the method: LNCaP cells (Horoszewicz et al., in “Models for Prostate Cancer” (ed. G. P. Murphy), Alan R. Liss, New York 1981, p. 115-132; Horoszewicz et al., Cancer Res. 43: 1809-1818, 1983) were plated out at a density of 2000 cells per well of a 96-well cell culture plate in RMPI 1640 medium (F1275, Biochrom AG), which contained activated charcoal-treated calf serum (FCS Serum Gold, PAA Laboratories) at a concentration of 5% (v/v). Three days later the cells were treated with the test substances in concentrations from 1×10^−8 to 1×10^−10 M in the presence of 1×10^−10 M R1881. Cell proliferation was determined seven days later after incubation for 2 hours with AlamarBlue (DAL1100, Invitrogen) (Nakayama et al., J Immunol Methods, 204(2): 205-8, 1997). The fluorescence values obtained were normalized, wherein 100% corresponded to the effect of the unstimulated control (without R1881), and 0% corresponded to the effect of the stimulated control (R1881 plus DMSO instead of test substance). The IC50 value was determined by regression analysis based on a four-parameter equation (minimum, maximum, IC50, Hill coefficient; Y=Max+(Min−Max)/(1+(X/IC50)^Hill)).
(Resazurin is reduced to fluorescent resorufin, in cell work by metabolically active cells.)

In a further experiment the test system is LAPC-4 cells. Nature of the experiment: Proliferation assay with LAPC-4 cells. Conditions: Homo sapiens, LAPC4, 168 h; in the presence of 1×10^−9 M R1881, seven days, AlamarBlue; read-out: IC50 LAPC-4 cell proliferation. Here is the method:
LAPC-4 cells (Klein et al., Nat Med. 3(4): 402-8, 1997) were plated out at a density of 4000 cells per well of a 96-well cell culture plate in RMPI 1640 medium (F1275, Biochrom AG) that contained activated charcoal-treated calf serum (FCS Serum Gold, PAA Laboratories) at a concentration of 10% (v/v). On the next day the cells were treated with the test substances in concentrations from 1×10^−8 to 1×10^−10 M in the presence of 1×10^−9 M R1881. Cell proliferation was determined seven days later after incubation for 2 hours with AlamarBlue (DAL1100, Invitrogen) (Nakayama et al., J Immunol Methods, 204(2): 205-8, 1997). The fluorescence values obtained were normalized, wherein 100% corresponded to the effect of the unstimulated control (without R1881), and 0% corresponded to the effect of the stimulated control (R1881 plus DMSO instead of test substance). The IC50 value was determined by regression analysis based on a four-parameter equation (minimum, maximum, IC50, Hill coefficient; Y=Max+(Min−Max)/(1+(X/IC50)^Hill)).

Molecules are shown by their SMILES.

Sequence of androgen receptor mutant E709Y (P10275 whole entry E710Y): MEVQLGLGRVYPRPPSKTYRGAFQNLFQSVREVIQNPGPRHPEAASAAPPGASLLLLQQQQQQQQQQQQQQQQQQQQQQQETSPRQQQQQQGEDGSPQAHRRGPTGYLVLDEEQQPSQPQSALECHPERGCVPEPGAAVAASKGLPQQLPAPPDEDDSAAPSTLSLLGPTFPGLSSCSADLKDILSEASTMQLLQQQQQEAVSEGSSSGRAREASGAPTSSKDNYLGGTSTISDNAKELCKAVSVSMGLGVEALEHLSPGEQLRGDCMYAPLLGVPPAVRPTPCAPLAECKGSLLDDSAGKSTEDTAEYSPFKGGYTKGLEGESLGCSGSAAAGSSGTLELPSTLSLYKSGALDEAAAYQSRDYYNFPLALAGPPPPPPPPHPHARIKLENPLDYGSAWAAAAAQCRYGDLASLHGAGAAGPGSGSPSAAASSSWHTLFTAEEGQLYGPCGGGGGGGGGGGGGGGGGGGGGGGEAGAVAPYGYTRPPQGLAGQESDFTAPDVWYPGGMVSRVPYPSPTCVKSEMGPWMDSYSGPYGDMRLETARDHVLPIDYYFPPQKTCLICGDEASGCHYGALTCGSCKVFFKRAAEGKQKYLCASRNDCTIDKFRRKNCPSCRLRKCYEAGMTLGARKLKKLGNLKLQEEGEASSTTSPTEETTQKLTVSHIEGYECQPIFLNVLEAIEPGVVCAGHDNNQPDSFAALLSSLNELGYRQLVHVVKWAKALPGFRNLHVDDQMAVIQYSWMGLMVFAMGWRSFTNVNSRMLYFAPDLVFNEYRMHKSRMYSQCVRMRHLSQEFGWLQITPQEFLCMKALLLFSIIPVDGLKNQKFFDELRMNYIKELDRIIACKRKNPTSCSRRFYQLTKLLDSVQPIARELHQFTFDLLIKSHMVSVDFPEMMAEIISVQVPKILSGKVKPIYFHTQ
Sequence of androgen receptor mutant W741C (P10275 whole entry W742C): as the sequence (P10275 whole entry E710Y) above, with Y710E, W742C counted along it

`N#Cc1cccc2c(O[C@H]3CC[C@H](NC(=O)c4cccc(F)c4)CC3)ccnc12` [Example 23, N-{trans-4-[(8-cyanoquinolin-4-yl)oxy]cyclohexyl}-3-fluorobenzamide]: the IC50 in experiment [1] is 30 nM; in experiment [2], 9 nM; in the experiment with LNCaP cells, 28 nM; in the experiment on LAPC-4 cells, 86 nM.
